According to paper PMC6332446, “Acylphloroglucinol Derivatives from the South African Helichrysum niveum and Their Biological Activities” (Molecules, 2015):

What was measured:
[1] = ORAC assay, peroxyl radical absorbance capacity (ORACROO); details: trolox equivalents; AAPH, 37 °C; ± % STDEV
Protocol: (§1) Automated Oxygen Radicals Absorbance Capacity (ORAC) Assay: ORAC was measured according to the method previously described. The method measures the antioxidant scavenging capacity for (a) peroxyl radicals generated by thermal decomposition of 2,2ʹ-azobis ([…]) dihydrochloride (AAPH; ORACROO assay); (b) hydroxyl radical (ORACOH assay), generated by H2O2-Cu^2+ (H2O2, 0.3%; Cu^2+ [as CuSO4], 18 μM, or (c) Cu^2+ [as CuSO4], 18 μM as a transition metal oxidant at 37 °C. ORAC values were expressed as micromoles of trolox equivalents (TE) per milligram of test sample, except when Cu^2+ (without H2O2) was used as an oxidant in the assay. In the presence of Cu^2+ without H2O2, test samples acted as prooxidants rather than antioxidants in the ORAC assay. The copper-initiated prooxidant activity was calculated using [(AreaBlank − AreaSample)/AreaBlank] × 100 and expressed as prooxidant units; one unit equals the prooxidant activity that reduces the area under the fluorescein decay curve by 1% in the ORAC assay.

[2] = ORAC assay, hydroxyl radical absorbance capacity (ORACOH); details: trolox equivalents; H2O2 0.3%, Cu2+ 18 μM, 37 °C; ± % STDEV
Protocol: as §1

[3] = Copper-initiated prooxidant activity in the ORAC assay; details: Cu2+ 18 μM without H2O2, 37 °C; one unit = 1% reduction of area under fluorescein decay curve
Protocol: as §1

[4] = Trolox equivalent absorbance capacity (TEAC) assay; details: trolox equivalents; absorbance 734 nm, 25 °C
Protocol: Trolox Equivalent Absorbance Capacity (TEAC) Assay: The total antioxidant capacity of the test samples in terms of TEAC were measured using a previously described method. Absorbance was read at 734 nm at 25 °C in a plate reader and the results were expressed as μM trolox equivalents per milligram dry weight (μM TE/g DW) of the test samples.

[5] = Ferric-ion reducing antioxidant power (FRAP) assay; details: ascorbic acid equivalents; absorbance 593 nm; ± % STDEV
Protocol: Ferric-Ion Reducing Antioxidant Power (FRAP) Assay: Working FRAP reagent was prepared in accordance to the method described previously. Absorbance was measured at 593 nm. L-ascorbic acid was used as a standard and the results were expressed as μM ascorbic acid equivalents per milligram dry weight (μM AAE/g DW) of the test samples.

mushroom tyrosinase = experiment: Tyrosinase enzyme assay; assay type: biochemical; details: L-Tyrosine substrate; samples screened at 100.00 μg/mL upper limit
Protocol: Tyrosinase Enzyme Assay: The tyrosinase inhibitory activity was measured using the spectrophotometric method previously described. Samples were dissolved in DMSO to a stock solution of 1 mg/mL, and further dilutions were then done with 50 mM sodium phosphate buffer (pH 6.5) for all working solutions. […] In the wells of a 96-well plate, 70 µL of each sample working solution was combined with 30 μL of tyrosinase (500 Units/mL in sodium phosphate buffer) in triplicate. After incubation at room temperature for 5 min, 110 μL of substrate (2 mM L-Tyrosine) was added to each well. Final concentrations of the crude extract, isolated compounds, and positive control ranged from 1.0–100 μg/mL. Incubation commenced for 30 min at room temperature and the enzyme activity was determined by measuring the absorbance at 490 nm. The percentage of tyrosinase inhibition was calculated as follows: Tyrosinase inhibition (%) = [(A − B) − (C − D)]/(A − B) × 100 (1) where A is the absorbance of the control with the enzyme, B is the absorbance of the control without the enzyme, C is the absorbance of the test sample with the enzyme and D is the absorbance of the test sample without the enzyme.

[6] = biological target: T1, elastase from porcine pancrease (Sus scrofa, UniProt P00772); experiment: biochemical; details: SANA substrate; samples screened at 100.00 μg/mL upper limit; read-out: Inhibitory Activities IC50, Elastase (converted)
T1 construct: from tissue; host or cells: porcine pancreas
T1 sequence (P00772 27-266): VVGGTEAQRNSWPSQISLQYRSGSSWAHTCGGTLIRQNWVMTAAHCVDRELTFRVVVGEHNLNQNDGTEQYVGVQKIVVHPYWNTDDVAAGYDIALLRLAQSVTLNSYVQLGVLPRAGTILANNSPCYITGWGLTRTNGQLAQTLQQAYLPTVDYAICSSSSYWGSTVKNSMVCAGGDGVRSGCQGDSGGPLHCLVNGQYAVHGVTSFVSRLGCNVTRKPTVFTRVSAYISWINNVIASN
Protocol: Elastase Inhibition Assay: Inhibition of elastase by the test samples was assayed using N-succyl-(Ala)-3-nitroanilide (SANA) as the substrate, monitoring the release of p-nitroanilide by the method described previously. The inhibitory activity determined the intensity of color released during cleavage of SANA by the action of elastase. Briefly, 1 mM SANA was prepared in 0.1 M Tris-HCl buffer pH 8.0 and 200 μL of this solution was added to the 20 μL of sample solution in a 96-Well plate. The mixtures were vortexed and preincubated for 10 min at 25 °C and then 20 μL of elastase from porcine pancrease (0.03 Units/mL) was added. The mixtures were further incubated for 10 min and the absorbance was measured at 410 nm. Methanol was used as control, while oleanolic acid used as a positive control.

[7] = biological target: Acetylcholinesterase (AChE) (Homo sapiens, UniProt P22303); experiment: biochemical; details: 500.00 μg/mL upper concentration limit; read-out: Inhibitory Activities IC50, Acetylcholinesterase (converted)
Sequence of Acetylcholinesterase (AChE) (P22303 32-614, species assumed): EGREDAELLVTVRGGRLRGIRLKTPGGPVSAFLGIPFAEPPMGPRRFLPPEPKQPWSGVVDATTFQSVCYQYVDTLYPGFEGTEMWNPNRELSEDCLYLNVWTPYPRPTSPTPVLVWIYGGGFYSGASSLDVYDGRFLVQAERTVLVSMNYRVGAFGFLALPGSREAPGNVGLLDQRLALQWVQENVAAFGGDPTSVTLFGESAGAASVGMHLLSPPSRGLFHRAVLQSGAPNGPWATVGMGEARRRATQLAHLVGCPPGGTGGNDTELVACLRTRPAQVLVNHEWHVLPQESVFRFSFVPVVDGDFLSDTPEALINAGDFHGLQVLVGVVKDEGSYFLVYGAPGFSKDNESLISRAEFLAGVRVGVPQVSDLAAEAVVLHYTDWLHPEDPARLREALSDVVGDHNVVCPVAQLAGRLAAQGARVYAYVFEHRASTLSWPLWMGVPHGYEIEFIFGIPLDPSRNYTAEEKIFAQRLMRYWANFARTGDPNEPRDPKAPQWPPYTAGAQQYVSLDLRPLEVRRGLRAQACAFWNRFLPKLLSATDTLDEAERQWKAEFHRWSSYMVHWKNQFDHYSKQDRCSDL
Protocol: Acetylcholinesterase Inhibition Assay: Acetylcholinesterase (AChE) inhibitory activity was measured using Ellman’s method as previously described with minor modifications. AChE catalysis the hydrolysis of acetythiocholine iodide (ACTI as substrate) to thiocholine, which can then react with Ellman’s reagent (DTNB) to produce 5-thio-2-nitrobenzoate (yellow color). In the presence of samples (inhibitors), the release of 5-thio-2-nitrobenzoate (yellow color) is reduced and it is monitored by measuring the absorbance at 450 nm.
In a 96-Well plate, the reaction mixture contains 50 µL of samples pre-incubated with 125 µL of 3 mM 5,5ʹ-Dithiobis-(2-nitrobenzoic acid), and 25 µL AChE (2.0 U/mL), in 50 mM tris-HCl buffer (pH 8.0), with 0.1% bovine serum albumin (BSA) for 15 minutes at 25 °C. Subsequently, 25 µL (15 mM) ACTI was added to the incubation mixture and further incubated for 10 min at 25 °C. […] Absorbance was recorded at 450 nm. The percent AChE inhibitory activity is given by: [A0 − (B − C)]/A0 × 100 (3) where A0 = full enzymatic reaction; B = Activity in the presence of sample; and C = Activity without sample.

Rat liver microsomes = details: Fe2+-induced, TBARs, samples screened at 50.00 μg/mL, ± STDEV

For CC1(C)CC[C@]2(C)CC=C3[C@](C)(CCC4[C@@]5(C)CC[C@H](O)[C@](C)(CO)C5CC[C@@]34C)C2C1 (stereo partly drawn) [Compound 11, 3β-24-dihydroxyterexer-14-ene], the “Peroxyl (ORAC peroxyl radical absorbance capacity)” value [1] was 1193.10 ± 1.68 µM TE/g, the “Hydroxyl (ORACOH)” value [2] was 0.89 ± 7.34 × 10^6 µMTE/g and the “Prooxidant (copper-initiated prooxidant activity)” value [3] was 31.38 ± 7.00 prooxidant units. The TEAC [4] was 1323.61 ± 1.76 μM TE/g DW, the FRAP [5] was 197.99 ± 3.90 µMAAE/g and the “Inhibitory Activities IC50, Tyrosinase” value (mushroom tyrosinase) was greater than 100.00 µg/mL. For the same molecule, the IC50 [6] was greater than 226 µM, the IC50 [7] was 707 µM and the “Anti-Lipid peroxidation IC50” value (Rat liver microsomes) was greater than 50.00 µg/mL.
